Usually kinetic solubility stands for solubility judged after dilution from a stock solution rather than from solid.

In brackets after ≈: the same amount, converted by molar mass. A value given as a limit tells only on which side of the number the result lay.

We go through 75 compounds from PubChem BioAssay AID1996.

For the data set the following is noted: buffer; pH 7.4; 200.0 µM.
In turn, `Cc1nc(NC(=O)COC(=O)c2ccc(CO)cc2)c(Cl)cc1Cl` returned a kinetic solubility of 21.9 µg/mL (≈ 59.3 µM).
Consider `O=Cc1ccc(C(=O)OCC(=O)NCc2ccco2)cc1`, for which the solubility (kinetic) was above 43.1 µg/mL.
`COc1ccccc1C(=O)OCC(=O)NC1CCCC1` returned a kinetic solubility above 41.6 µg/mL.
In the case of `CN(C)/C=C/C(=O)c1ccc(Oc2ncccn2)cc1`, the solubility (kinetic) was above 40.4 µg/mL.
`O=C1NC(=O)C(=Cc2ccc(Sc3ccccc3)o2)C(=O)N1` came in with a solubility (kinetic) of 40.5 µg/mL (≈ 129 µM).
Turning to `CCOC(=O)Cc1csc(NC(=O)c2ccc(F)cc2)n1`, the kinetic solubility was above 46.2 µg/mL.
`CC(C)NCC(O)c1ccc(O)c(O)c1.Cl` (stereo not given) came in with a kinetic solubility above 37.2 µg/mL.
Take `COc1ccccc1C(=O)NC(=O)COC(=O)C1CC1C` (stereo not given): the solubility (kinetic) was above 43.7 µg/mL.
In the case of `CC1(C)CC(NC(=O)c2cc(Cl)ccc2Cl)CC(C)(C)N1`, the solubility (kinetic) was above 49.4 µg/mL.
`CCOc1ccc(C(C)NC(=O)C2CCCC2)cc1` (stereo not given) registered a kinetic solubility above 39.2 µg/mL.
The same measure for `CCOC(=O)C1=C(C)NC2=C(C(=O)c3ccccc32)C1c1ccc([N+](=O)[O-])o1` (stereo not given): 7.4 µg/mL (≈ 19.5 µM); for `CCCCN(C)C(=O)c1cc2c(s1)-c1ccccc1S(=O)(=O)C2`: above 52.4 µg/mL; for `CCNC(=O)c1c(O)c2c([nH]c1=O)CCCC2`: 3 µg/mL (≈ 12.7 µM).
On to `CN(C)c1ccc(NC(=O)Nc2cccc3ccccc23)cc1`, for which the kinetic solubility came out at 2.6 µg/mL (≈ 8.51 µM).
In turn, `CCCC(=O)Nc1nnc(-c2ccc3c(c2)OCCO3)o1` had a kinetic solubility above 43.4 µg/mL.
For the compound `O=C(Nc1ccc(CN2CCOCC2)cc1)c1ccc(Br)cc1`, the kinetic solubility was 0.6 µg/mL (≈ 1.6 µM).
In turn, `CCOCCc1c(O)[nH]c(=S)[nH]c1=O` gave a kinetic solubility above 32.4 µg/mL.
The same measure for `Cc1cccc(N2CCN(C(=O)CNC(=O)Cc3ccccc3)CC2)c1C`: above 54.8 µg/mL; for `CCN1CCc2c(OCC(=O)Nc3cccc(C)c3)cccc2C1=O`: above 50.8 µg/mL; for `CC(C)(C)NC(=O)C(OC(=O)c1ccco1)c1ccccc1F` (stereo not given): above 47.9 µg/mL.
In turn, `COc1ccc(NCc2cc(=O)[nH]c3ccccc23)cc1` registered a kinetic solubility of 8 µg/mL (≈ 28.5 µM).
Take `COc1ccc(Cl)cc1NC(=O)NN1CCN(C)CC1`: the kinetic solubility was above 44.8 µg/mL.
The same measure for `O=C(CN1C(=O)NC2(CCc3ccccc32)C1=O)Nc1ccccc1Cl` (stereo not given): above 55.5 µg/mL.
`Cc1ccc(OCC(=O)NCCNC(=O)c2ccco2)cc1` gave a kinetic solubility of 32.9 µg/mL (≈ 109 µM).
The same measure for `COc1ccc(CCNC(=O)CN2C(=O)NC3(CCCCC3C)C2=O)cc1` (stereo not given): above 56 µg/mL; for `COc1cccc(OCCn2cc(C=O)c3ccccc32)c1`: 12.2 µg/mL (≈ 41.3 µM).
The compound `O=C(/C=C/c1ccccc1)Oc1cccc2cccnc12` came in with a solubility (kinetic) of 20.2 µg/mL (≈ 73.4 µM).
`O=C(c1ccc(-c2ccccc2)cc1)N1CCN(c2ccccc2F)CC1` returned a solubility (kinetic) of 1.8 µg/mL (≈ 4.99 µM).
`O=C(/C=C/c1ccc([N+](=O)[O-])cc1)Nc1cccc(S(=O)(=O)NC2=NCCCCC2)c1` had a kinetic solubility of 11.5 µg/mL (≈ 26 µM).
In the case of `COc1ccc(C(C)C)cc1S(=O)(=O)NCC1CCCO1` (stereo not given), the solubility (kinetic) came out at 44.3 µg/mL (≈ 141 µM).
Take `O=C(COc1ccc2ccccc2c1)Nc1ccncc1`: the solubility (kinetic) amounted to 6.1 µg/mL (≈ 21.9 µM).
Compound `CC(=O)Nc1ccc(N/C=C2/CCCC2=O)cc1` yielded a kinetic solubility above 36.6 µg/mL.
In turn, `Nc1nc(Nc2cccc(Cl)c2)nc(NCCO)c1[N+](=O)[O-]` showed a solubility (kinetic) of 6.5 µg/mL (≈ 20 µM).
For `CCc1nc(C(N)=O)c2[nH]c(=O)n(-c3ccccc3F)c2n1`, the kinetic solubility came to 10.2 µg/mL (≈ 33.9 µM). This solubility kinetic lies about 1.6-fold higher than the previous one.
Turning to `COc1ccc2nc(NC(=O)c3ccccc3O)sc2c1`, the solubility (kinetic) worked out at 0.7 µg/mL (≈ 2.33 µM).
The result for `CC(C)C(NC(=O)c1ccccc1)C(=O)N1CCCCCC1` (stereo not given) reads above 45.4 µg/mL; that for `COc1cccc(NC(=O)C2CCCN(S(C)(=O)=O)C2)c1` (stereo not given), above 46.9 µg/mL; that for `COc1ccccc1C/C(N)=N/OC(=O)c1cccs1`, 42.8 µg/mL (≈ 147 µM).
The same measure for `CN1CCN(C(=O)c2cc(Br)cn2C)CC1`: above 42.9 µg/mL; for `CCOC(=O)C1CCCN(CCc2ccccc2)C1` (stereo not given): 32.1 µg/mL (≈ 123 µM); for `Cc1cccc(NC(=O)COC(=O)c2ccccn2)c1`: 34.9 µg/mL (≈ 129 µM).
In turn, `O=C(O)c1cc(-c2cccs2)nc2ccc(Br)cc12` registered a kinetic solubility above 50.1 µg/mL.
With `CC(=O)c1c(C)[nH]c(C(=O)OCC(=O)c2ccc3c(c2)NC(=O)CO3)c1C`, the kinetic solubility amounted to 10.5 µg/mL (≈ 28.4 µM).
The same measure for `NS(=O)(=O)c1ccc(CNC(=O)c2cnccn2)cc1`: above 43.8 µg/mL.
The compound `O=C(CC1CCCCC1)NCc1nc(-c2ccccc2)no1` displayed a solubility (kinetic) of 5.8 µg/mL (≈ 19.4 µM).
Consider `Cc1cc(C(=O)Nc2cccc([N+](=O)[O-])c2C)cs1`, for which the kinetic solubility is 13.6 µg/mL (≈ 49.2 µM).
The same measure for `O=C(O)C(Sc1ccncn1)c1ccccc1` (stereo not given): 26.4 µg/mL (≈ 107 µM); for `CC(NC(=S)Nc1ccc(OC(F)F)c(Cl)c1)C(C)(C)C` (stereo not given): 2.3 µg/mL (≈ 6.83 µM).
`Cl.O=S(=O)(NCCN1CCN(S(=O)(=O)c2ccccc2F)CC1)c1ccccc1F` came in with a kinetic solubility above 72.3 µg/mL.
As to `Nc1ccc2nc(SCc3ccccc3F)sc2c1`, the solubility (kinetic) turned out to be 16 µg/mL (≈ 55.1 µM).
Consider `O=C(COC(=O)c1ccc([N+](=O)[O-])o1)NC1CCCC1`, for which the kinetic solubility was 39.2 µg/mL (≈ 139 µM).
The same measure for `O=C(c1cc(-c2ccccc2O)on1)N1CCCCCC1`: 2.6 µg/mL (≈ 9.08 µM); for `CN1C(=O)/C(=C/c2ccc(O)c([N+](=O)[O-])c2)N(C)C1=S`: 4.5 µg/mL (≈ 15.3 µM); for `Cc1ccc(F)cc1N=Cc1c(O)c2ccccc2oc1=O`: below 0.6 µg/mL.
The same measure for `CCSc1nnc(SCC(=O)NC2CCCCC2)s1`: above 47.6 µg/mL.
Compound `CCOc1ccccc1OC(=O)CN1C(=O)c2ccccc2C1=O` gave a solubility (kinetic) of 16.2 µg/mL (≈ 49.8 µM).
The same measure for `CC(=O)N(CCc1cccc(C)c1)Cc1cc2cc(C)ccc2[nH]c1=O`: 1.1 µg/mL (≈ 3.16 µM).
`CCOc1ccccc1NC(=O)NCc1ccco1` had a kinetic solubility of 9.8 µg/mL (≈ 37.6 µM).
The same measure for `COc1ccc(C(=O)Nn2c(C)nc3ccccc3c2=O)cc1`: above 46.4 µg/mL.
In the case of `COc1ccc(NC(=O)c2cc(-c3ccco3)on2)cc1`, the solubility (kinetic) came out at 0.8 µg/mL (≈ 2.81 µM).
`Cc1ccc(CNC(=O)C2CC(=O)N(C3CCCC3)C2)cc1` (stereo not given) returned a kinetic solubility of 41.2 µg/mL (≈ 137 µM).
`COC(=O)c1c(C)[nH]c(C)c1-c1ccc([N+](=O)[O-])cc1` displayed a solubility (kinetic) of 36.3 µg/mL (≈ 132 µM).
Turning to `Nn1c(C2CCC2)nc2ccccc2c1=O`, the solubility (kinetic) was above 32.3 µg/mL.
Compound `COc1ccccc1CNC(=O)COC(=O)c1cc2ccccc2o1` displayed a kinetic solubility of 3.8 µg/mL (≈ 11.2 µM).
Take `O=C(CCNc1cccc(F)c1)c1cc2ccccc2o1`: the kinetic solubility was below 0.6 µg/mL.
`CCc1cn(C2CC(O)C(CO)O2)c(=O)[nH]c1=O` (stereo not given): the solubility (kinetic) is above 38.4 µg/mL.
`O=C(O)c1cc2c(=O)c3ccccc3oc2nc1C(F)(F)F` had a solubility (kinetic) above 46.4 µg/mL.
Turning to `CC1Oc2ccccc2N(CC(=O)N2CCCCC2)C1=O` (stereo not given), the kinetic solubility was above 43.3 µg/mL.
`COc1ccccc1NC(=O)Nc1c(C)nn(C)c1C` showed a solubility (kinetic) above 41.1 µg/mL.
In the case of `CC(=O)Nc1ccc(N=c2cc([N+](=O)[O-])cc(Cl)n2O)cc1`, the solubility (kinetic) stood at 29 µg/mL (≈ 89.9 µM).
The same measure for `C=C(C)C(=O)Nc1ccc2c(c1)OCCOCCOCCO2`: 35.2 µg/mL (≈ 115 µM); for `O=c1[nH]c(O)c(C=Nc2ccccc2Sc2ccccc2)c(=O)[nH]1`: 1.3 µg/mL (≈ 3.83 µM); for `Cc1ccc(SCC(=O)c2c(C)nc3ccccn23)cc1`: 2.6 µg/mL (≈ 8.77 µM).
Compound `O=[N+]([O-])c1cccc2c3c([nH]c12)CCCC3` registered a solubility (kinetic) below 0.2 µg/mL.
Turning to `Cc1cccc2c(N=O)c(O)[nH]c12`, the solubility (kinetic) was above 26.4 µg/mL.
